# In patent publication US10053459B2, “Life-extending agent, life extension method using the life-extending agent, novel dual oxidase activator, method for activating dual oxidase, production of life-extending agent, and production of dual oxidase activator” (National University Corporation Nagoya University, priority 2014, dated 2018):
# Where a name gives a salt, the structure may show the parent alone.
# Experiments:
# [1] = tested on: nematode C. elegans, wild-type; assay: Life test (life assay) of nematode on medium containing the test substance; format: in vivo; details: for average life / life-extending effect: 5.0 mM in medium vs 0 mM, FIGS. 3 and 4
# Description: Pyrroloquinoline quinone disodium salt was mixed with water and sodium hydroxide to obtain test sample concentrate 1 of pH 6. The content of the pyrroloquinoline quinone disodium salt in the test sample concentrate 1 was adjusted to 30 mM. The test sample concentrate 1 was autoclave-sterilized for use. […] Meanwhile, to each E. coli solution cultured in an LB medium (Luria-Bertani broth), the test sample concentrate 1 was added so as to attain the same concentration as that of the pyrroloquinoline quinone disodium salt in the medium of each of the prepared petri dishes. 100 μL of the obtained E. coli solution was seeded in a circular pattern of approximately 2 cm in diameter to the center of each petri dish. […] The petri dish was wrapped in Parafilm during storage. […] These individuals were excluded from the data. […] Petri dishes having media containing different concentrations of the acetone adduct were prepared by the same operation as in Example 1 except that the amount of the test sample concentrate 2 added was adjusted such that the concentration of the acetone adduct in each medium solution was 0 mM (Comparative Example 2) and 5.0 mM (Example 5). […] Petri dishes having media containing different concentrations of the IPQ trisodium salt were prepared by the same operation as in Example 1 except that the amount of the test sample concentrate 3 added was adjusted such that the concentration of the IPQ trisodium salt in each medium solution was 0 mM (Comparative Example 3) and 5.0 mM (Comparative Example 4).
# [2] = Stability of test substance in the petri dishes used in the life test (LC analysis); format: physicochemical; details: for Test substance (%) / Main impurities: in petri dish medium used in the life test
# Description: The analysis of PQQ sodium salt was conducted under analysis conditions given below. PQQ concentration and purity were measured by high-performance liquid chromatography under conditions shown below.
# Apparatus: high-performance liquid chromatography, LC-2010 manufactured by Shimadzu Corp.
# Column: YMC-Pack ODS-A, 150×4.6 mm I.D.
# Measurement temperature: 40° C.
# Detection: absorbance at 259 nm
# Eluent: 30 mM acetic acid/70 mM ammonium acetate (pH 5.1)
# The reduced pyrroloquinoline quinone, the acetone adduct of pyrroloquinoline quinone, and the IPQ trisodium salt in the petri dishes used in the life test were evaluated for their stability by liquid chromatography analysis (LC analysis). The liquid chromatography analysis can be conducted according to those described above.
# [3] = tested on: nematode variant gas-1 (fc2); assay: Life test using variant gas-1 (fc2); format: in vivo, C. elegans
# Source text: (§1) Grown-up individuals were used in the life assay.
# (§2) The petri dish was wrapped in Parafilm during storage. […] These individuals were excluded from the data.
# [4] = tested on: nematode line OB265bli-3 (e767); imEx144[bli-3genomic clone]; assay: Life test using line OB265 bli-3 (e767); imEx144[bli-3genomic clone]; format: in vivo, C. elegans
# Source text: as §1, §2
# [5] = tested on: nematode variant age-1 (hx546)
# Description: (§3) 7.2 g of NaCl, 48 g of agar, 6 g of Bactopeptone (manufactured by Becton, Dickinson and Company), and water (2.4 L including the amount of the sample concentrate to be added) were added into each flask. The flask was autoclaved at 120° C. for 20 minutes or longer and then cooled until the surface temperature of the flask became approximately 45° C. To this flask, 60 mL of a 1 M potassium phosphate solution, 2.4 mL of a 1 M CaCl2 solution, 2.4 mL of a 1 M MgSO4 solution, 2.4 mL of a 750 mg/150 mL cholesterol solution, and a predetermined amount of the 30 mM test sample concentrate 1 were added to obtain a medium solution. The amount of the test sample concentrate 1 added was adjusted such that the concentration of the pyrroloquinoline quinone disodium salt in the medium solution was 0 mM (Comparative Example 1), 0.1 mM (Example 1), 1.0 mM (Example 2), 3.0 mM (Example 3), and 5.0 mM (Example 4). The flask was further cooled until the surface temperature of the flask reached 40 to 41° C. 14 mL of the medium solution was added to each polystyrene petri dish having a diameter of 6 cm and cooled to room temperature to prepare petri dishes having media containing different concentrations of the pyrroloquinoline quinone disodium salt.
# (§4) In order to synchronize the ages of nematode individuals at the start of the experiment, parent nematodes were allowed to lay eggs and then removed, and individuals evenly grown for a given period of time after hatching were used. Specifically, five adults (individuals under incubation) were selected and transferred to each petri dish, which was then left at 20° C. for 2 hours (lay period), and the parent nematodes were removed. Then, the petri dish was left at 20° C. for 72 hours. The life test was started when the number of individuals per petri dish reached 10 to 20.
# as §1
# (§5) The individuals in each petri dish were transferred to a fresh petri dish every day. Information on date, the number of survivors, the number of deaths, the number of missing individuals, etc., was recorded in a score sheet. The petri dish was wrapped in Parafilm during storage. An individual was judged as being dead when no spontaneous behavior was seen and no response was found even by vibration stimulus or contact stimulus. Nematodes are often missing because of running out of the petri dish, being dried at the wall, crawling out from a gap in the medium, for example. Therefore, the number of missing individuals was recorded and excluded from the data. Individuals that died of the eclosion of their children in their bodies, which occurs frequently in certain variants, were recorded as BAG, and individuals that died of hernia were recorded as rupture.
# (§6) Nematode variants can be used to determine how PQQ works. A plurality of petri dishes were prepared using the medium containing 5 mM PQQ prepared in Example 4. The life extension test was conducted in the same way as in Example 1 using the prepared petri dishes and each variant shown in Table 2. The results obtained without the addition of PQQ are indicated as 100 for a relative effect.
# [6] = tested on: nematode variant bli-3 (e767), reduced activity of dual oxidase
# Description: as §3, §4, §1, §5, §6
# [7] = tested on: nematode variant bli-3 (im-10), reduced activity of dual oxidase
# Description: as §3, §4, §1, §5, §6
# [8] = tested on: nematode variant daf-2 (e1370)
# Description: as §3, §4, §1, §5, §6
# [9] = tested on: nematode variant nsy-1 (ky400)
# Description: as §3, §4, §1, §5, §6
# [10] = tested on: nematode variant pmk-3 (ok-169)
# Description: as §3, §4, §1, §5, §6
# [11] = tested on: nematode variant skn-1 (zu67)
# Description: as §3, §4, §1, §5, §6
# [12] = Stability of reduced PQQ in agar medium, preservation test (LC and UV spectrum analysis); format: physicochemical; details: 30° C. for 3 days
# Description: Ultraviolet-visible spectra were measured using a UV spectrometer UV1800 manufactured by Shimadzu Corp.
# Reduced PQQ was added to sterile water to prepare a 30 mM dispersion. This dispersion was added so as to make 5 mM in the composition for evaluation described above to prepare a petri dish. The preservation test was conducted at 30° C. for 3 days, followed by LC analysis and UV spectrum analysis. The reduced formed is converted to PQQ under neutral conditions. Therefore, the reduced state can be confirmed by detecting PQQ by the LC analysis and measuring the UV spectrum of a solution thereof in dimethyl sulfoxide. As a result of confirming the state of the reduced PQQ in an agar medium in this way, 86% of all PQQs maintained the reduced state.
# [13] = 5 mM PQQ, result without PQQ = 100
compound,measurement,setting,value
"O=C(O)c1cc2c(=O)c3ncn4c(C(=O)O)cc(C(=O)O)c(c2[nH]1)c34 [IPQ, trisodium salt of imidazoloquinone, reference compound]",average life / life-extending effect,[1],small life-extending effect
same,Test substance (%),[2],IPQ100%
"O=C(O)c1cc(C(=O)O)c2c(n1)C(=O)C(=O)c1cc(C(=O)O)[nH]c1-2 [PQQ, Pyrroloquinoline quinone disodium salt]",average life (survival rate vs rearing days after becoming adults),"[1]; 0.1, 1.0, 3.0, 5.0 mM in medium vs 0 mM, FIGS. 1 and 2",tends to extend the average life
same,Average life after becoming adult,"[1]; wild-type, 5 mM PQQ in medium",15.0 ± 0.6 days
same,Relative value,"[1]; wild-type, 5 mM PQQ, result without PQQ = 100",140
same,Average life after becoming adult,[3]; 5 mM PQQ in medium,14.7 ± 0.9 days
same,Relative value,[3]; [13],111
same,Average life after becoming adult,"[4]; OB265bli-3 (e767), imEx144[bli-3genomic clone], 5 mM PQQ in medium",19.8 ± 0.3 days
same,Relative value,"[4]; OB265bli-3 (e767), imEx144[bli-3genomic clone], 5 mM PQQ, result without PQQ = 100",122
same,life-extending effect (in words),"[4]; bli-3 gene-deficient line transfected with the bli-3 gene, Example 15, 5 mM PQQ",extended
same,Average life after becoming adult,[5]; 5 mM PQQ in medium,23.4 ± 0.9 days
same,Relative value,[5]; [13],123
same,Average life after becoming adult,[6]; 5 mM PQQ in medium,13.5 ± 0.4 days
same,Relative value,[6]; [13],87
same,Average life after becoming adult,[7]; 5 mM PQQ in medium,11.7 ± 0.4 days
same,Relative value,[7]; [13],99
same,Average life after becoming adult,[8]; 5 mM PQQ in medium,34.6 ± 0.9 days
same,Relative value,[8]; [13],121
same,Average life after becoming adult,"[9]; nsy-1 (ky400), 5 mM PQQ in medium",16.0 ± 0.3 days
same,Relative value,"[9]; nsy-1 (ky400), 5 mM PQQ, result without PQQ = 100",104
same,life-extending effect (in words),"[9]; nsy-1 variant, 5 mM PQQ",strongly suppressed
same,Average life after becoming adult,"[10]; pmk-3 (ok-169), 5 mM PQQ in medium",17.9 ± 0.4 days
same,Relative value,"[10]; pmk-3 (ok-169), 5 mM PQQ, result without PQQ = 100",90
same,life-extending effect (in words),"[10]; pmk-3 variant, 5 mM PQQ",strongly suppressed
same,Average life after becoming adult,"[11]; skn-1 (zu67), 5 mM PQQ in medium",12.8 ± 0.2 days
same,Relative value,"[11]; skn-1 (zu67), 5 mM PQQ, result without PQQ = 100",96
same,life-extending effect (in words),"[11]; skn-1 gene variant, 5 mM PQQ",strongly suppressed
CC(=O)CC1(O)C(=O)c2cc(C(=O)O)[nH]c2-c2c(C(=O)O)cc(C(=O)O)nc21 (stereo not drawn) [acetone adduct of pyrroloquinoline quinone],average life / life-extending effect,[1],tends to extend the average life
same,Main impurities,[2],PQQ
same,Test substance (%),[2],92%
same,detection of IPQ (formed by reaction with amino acids of the medium),[2]; petri dish medium with peptone,not detected
"O=C(O)c1cc(C(=O)O)c2c(n1)c(O)c(O)c1cc(C(=O)O)[nH]c12 [Reduced pyrroloquinoline quinone, reduced pyrroloquinoline quinone]",Main impurities,[2],IPQ
same,Test substance (%),[2],Reduced pyrroloquinoline quinone 65%
same,Main impurities,[12]; 5 mM in agar medium petri dish,PQQ
same,Test substance (%),"[12]; 5 mM in agar medium petri dish, LC and UV analysis",Reduced pyrroloquinoline quinone 85%
same,share of all PQQs that maintained the reduced state,"[12]; 5 mM in agar medium, LC and UV spectrum analysis",86%
